Assay results as given in patent US20220257774A1, “AROMATIC AMINE AR AHD BET TARGETING PROTEIN DEGRADATION CHIMERA COMPOUND AND USE” (HINOVA PHARMACEUTICALS INC., priority 2019, published 2022).
Read-outs that look alike come from different tables or passages of the source.

System: LNCaP/AR cells
Assay: Inhibition of the proliferation of LNCap/AR cells (CCK-8)
Format: cell-based
Conditions: read-out: LNCap/AR IC50
From the text: 1. Biological Assay of the Inhibition on the Proliferation of LNCap/AR Cells
(1) Experimental materials and instruments: LNCaP/AR cell line and 22RV1 cell line (provided by Sichuan Kangcheng Biotechnology Co., Ltd.) Fetal bovine serum FBS (Gibco, Cat. No. 10099-141) 0.01M PBS (Biosharp, Cat. No. 162262) RIPM1640 medium (Hyclone, Cat. No. 308090.01) Penicillin-Streptomycin (Hyclone, Cat. No. SV30010) Cell counting kit-8 (Signalway Antibody, Cat. No. CP002) DMSO (Sigma, Cat. No. D5879) Centrifuge Tube, 15 ml (Excell Bio, Cat. No. CS015-0001) Cell Culture Dish, (Excell Bio, Cat. No. CS016-0128) 96-well cell culture plate (Corning, Cat. No. 3599) Microplate reader (Thermo Multiskan MK3 type)
(2) Experimental Methods:
a. Preparation of Buffer Cell culture medium: RIPM1640 medium, 10% FBS, 1% Pen Strep: PBS buffer: PBS powder was dissolved in 2 L of ultrapure water and sterilized. b. Experimental Procedures 1) LNCaP/AR cells were subcultured in cell culture media, and then the cells in good growth condition were seeded in a 96-well plate at 80 μL/well (1000 cells/well), and cultured overnight in a 37° C., 5% CO2 cell incubator. 2) The drug was prepared into a 10 mM stock solution with dimethyl sulfoxide (DMSO). Prior to use, the stock solution was diluted in a ratio of […] with DMSO, and then diluted at a 3-fold gradient to obtain 9 serial concentrations. Then, each concentration of compound was further diluted in a ratio of 1:200 with the culture medium (to ensure that the DMSO concentration in the culture system was 0.1%), and two wells were set for each concentration. 20 μL of the diluted compound solution was added to the well of the cell culture (with a final concentration of 10 μM, 3.3 μM, 1.1 μM . . . ), and then the plate was gently tapped to thoroughly mix. In addition, the experiment included 3 negative control wells only containing cells and 3 blank control wells only containing culture medium (6 wells were each added with DMSO diluted in a ratio of 1:200 with 20 μL of culture medium). c. Result Detection: 1) After culturing for 6 days, 10 μL of CCK-8 was added to each well, and the plate was further incubated for 1 h in a 37° C., 5% CO2 cell incubator. 2) The absorbance (OD value) was measured at 450 nm with a multifunctional microplate reader. 3) The data was analyzed by the Dose-response-inhibition equation in the software GraphPad Prism5, and the IC50 value was obtained. 2. Biological assay of the inhibition on the proliferation of other drug-resistant prostate cancer cells

[1] = 144 h, LNCaP/AR cells, 6 days culture, CCK-8
[2] = LNCaP/AR cells, 6 days culture, CCK-8

SMILES | IC50 [1] | also measured
CC(=O)O[C@@H]1C[C@@H](C(=O)N[C@@H](C)c2ccc(-c3scnc3C)cc2)N(C(=O)[C@@H](NC(=O)COCCN2CCC(CN(c3ccc(-n4ccnc4)c(Br)c3)c3cc(-c4c(C)noc4C)ccc3C)CC2)C(C)(C)C)C1 [Compound 50, (3R,5S)-1-((S)-2-(2-(4-((3-bromo-4-(1H-imidazol-1-yl)phenyl) (5-(3,5-dimethylisoxazol-4-yl)-2-methylphenyl)amino)methyl)piperidin-1-yl)ethoxy)acetamido)-3,3-dimethylbutyryl)-5-((S)-1-(4-methylthiazol-5-yl)phenyl)ethyl)carbamoyl)pyrrolidine-3-yl acetate] | 501 to 2000 nM | –
CC(=O)O[C@@H]1C[C@@H](C(=O)N[C@@H](C)c2ccc(-c3scnc3C)cc2)N(C(=O)[C@@H](NC(=O)COCCCCCN(c2ccc(-n3cnc(C)c3)c(Br)c2)c2cc(-c3c(C)noc3C)ccc2C)C(C)(C)C)C1 [Compound 52, (3R,5S)-1-((S)-2-(2-((5-((3-bromo-4-(4-methy-1H-imidazol-1-yl)phenyl)(5-(3,5-dimethylisoxazol-4-yl)-2-methylphenyl)amino)pentyl)oxy)acetamido)-3,3-dimethylbutyryl)-5-((S)-1-(4-methylthiazol-5-yl)phenyl)ethyl)carbamoyl)pyrrolidine-3-yl acetate] | – | IC50 [2]: 101 to 500 nM
COc1ccc(N(CCCCCOCC(=O)N[C@H](C(=O)N2C[C@H](OC(C)=O)C[C@H]2C(=O)N[C@@H](C)c2ccc(-c3scnc3C)cc2)C(C)(C)C)c2cc(-c3c(C)noc3C)ccc2C)cc1 [Compound 56, (3R,5S)-1-((S)-2-(2-((5-((5-(3,5-dimethylisoxazol-4-yl)-2-methylphenyl)(4-methoxyphenyl)amino)pentyl)oxy)acetamido)-3,3-dimethylbutyryl)-5-((S)-1-(4-(4-methylthiazol-5-yl)phenyl)ethyl)carbamoyl)pyrrolidine-3-yl acetate] | – | IC50 [2]: 101 to 500 nM
Cc1ccc(-c2c(C)noc2C)cc1N(CCCCCOCC(=O)N[C@H](C(=O)N1C[C@H](O)C[C@H]1C(=O)N[C@@H](C)c1ccc(-c2scnc2C)cc1)C(C)(C)C)c1ccc(C#N)c(Cl)c1 [Compound 58] | – | IC50 (LNCaP/AR, 144 h): 101 to 500 nM
Cc1ccc(-c2c(C)noc2C)cc1N(CCCCCN1C(=O)CCC(N2Cc3cc(N)ccc3C2=O)C1=O)c1ccc(C#N)c(Cl)c1 (stereo not shown) [Compound 59, 4-((5-(3-(5-amino-1-oxoisoindolin-2-yl)-2,6-dioxopiperidin-1-yl)pentyl)(5-(3,5-dimethylisoxazol-4-yl)-2-methylphenyl)amino)-2-chlorobenzonitrile] | – | IC50 (LNCaP/AR, 144 h): 501 to 2000 nM
CCN(c1ccc(C#N)c(Cl)c1)c1cc(-c2c(C)nn(CCCCCOCC(=O)N[C@H](C(=O)N3C[C@H](OC(C)=O)C[C@H]3C(=O)N[C@@H](C)c3ccc(-c4scnc4C)cc3)C(C)(C)C)c2C)ccc1C [Compound 81, (3R,5S)-1-((S)-2-(2-((5-(4-(3-((3-chloro-4-cyanophenyl)(ethyl)amino)-4-methylphenyl)-3,5-dimethyl-1H-pyrazol-1-yl)pentyl)oxy)acetamido)-3,3-dimethylbutyryl)-5-((S)-1-(4-methylthiazol-5-yl)phenyl)ethyl)carbamoyl)pyrrolidine-3-yl acetate] | – | IC50 (LNCaP/AR, 144 h): 501 to 2000 nM
CCn1nc(C)c(-c2ccc(C)c(N(CCCCCOCC(=O)N[C@H](C(=O)N3C[C@H](OC(C)=O)C[C@H]3C(=O)N[C@@H](C)c3ccc(-c4scnc4C)cc3)C(C)(C)C)c3ccc(C#N)c(Cl)c3)c2)c1C [Compound 82, (3R,5S)-1-((S)-2-(2-((5-((3-chloro-4-cyanophenyl)(5-(1-ethyl-3,5-dimethyl-1H-pyrazol-4-yl)-2-methylphenyl)amino)pentyl)oxy)acetamido)-3,3-dimethylbutyryl)-5-((S)-1-(4-methylthiazol-5-yl)phenyl)ethyl)carbamoyl)pyrrolidine-3-yl acetate] | – | IC50 [2]: 101 to 500 nM
Cc1ccc(-c2c(C)noc2C)cc1N(CCCCCOCC(=O)N[C@H](C(=O)N1C[C@H](O)C[C@H]1C(=O)N[C@@H](C)c1ccc(-c2scnc2C)cc1)C(C)(C)C)c1ccc(-n2ccnc2)cc1 [Compound 83, (2S,4R)-1-((S)-2-(2-((5-((4-(1H-imidazol-1-yl)phenyl)(5-(3,5-dimethylisoxazol-4-yl)-2-methylphenyl)amino)pentyl)oxy)acetylamino)-3,3-dimethylbutyryl)-4-hydroxy-N—((S)-1-(4-(4-methylthiazol-5-yl)phenyl)ethyl)-pyrrolidinyl-2-formamide] | – | IC50 [2]: < 100 nM
Cc1ccc(-c2c(C)noc2C)cc1N(CCCCOCC(=O)N[C@H](C(=O)N1C[C@H](O)C[C@H]1C(=O)N[C@@H](C)c1ccc(-c2scnc2C)cc1)C(C)(C)C)c1ccc(-n2ccnc2)cc1 [Compound 85, (2S,4R)-1-((S)-2-(2-(4-((4-(1H-imidazol-1-yl)phenyl)(5-(3,5-dimethylisoxazol-4-yl)-2-methylphenyl)amino)butoxy)acetamido)-3,3-dimethylbutyryl)-4-hydroxy-N—((S)-1-(4-(4-methylthiazol-5-yl)phenyl)ethyl)pyrrolidine-2-carboxamide] | 101 to 500 nM | –
CC(=O)O[C@@H]1C[C@@H](C(=O)N[C@@H](C)c2ccc(-c3scnc3C)cc2)N(C(=O)[C@@H](NC(=O)COCCCCN(c2ccc(-n3ccnc3)cc2)c2cc(-c3c(C)noc3C)ccc2C)C(C)(C)C)C1 [Compound 86, (3R,5S)-1-((S)-2-(2-(4-((4-(1H-imidazol-1-yl)phenyl)(5-(3,5-dimethylisoxazol-4-yl)-2-methylphenyl)amino)butoxy)acetamido)-3,3-dimethylbutyryl)-5-((S)-1-(4-(4-methylthiazol-5-yl)phenyl)ethyl)carbamoyl)pyrrolidine-3-yl acetate] | 101 to 500 nM | –

More lines, main results first:

IC50 [1] | SMILES | also measured
501 to 2000 nM | Cc1ncc(-c2c(C)noc2C)cc1N(CCCCCOCC(=O)N[C@H](C(=O)N1C[C@H](O)C[C@H]1C(=O)N[C@@H](C)c1ccc(-c2scnc2C)cc1)C(C)(C)C)c1ccc(-n2ccnc2)c(Br)c1 [Compound 49, (2S,4R)-1-((S)-2-(2-((5-((3-bromo-4-(1H-imidazol-1-yl)phenyl)(5-(3,5-dimethylisoxazol-4-yl)-2-methylpyridin-3-yl)amino)pentyl)oxy)acetamido)-3,3-dimethylbutyryl)-4-hydroxy-N—((S)-1-(4-(4-methylthiazol-5-yl)phenyl)ethyl)pyrrolidine-2-formamide] | –
> 2000 nM | CC(=O)O[C@@H]1C[C@@H](C(=O)N[C@@H](C)c2ccc(-c3scnc3C)cc2)N(C(=O)[C@@H](NC(=O)COCCN2CC(CN(c3ccc(-n4ccnc4)c(Br)c3)c3cc(-c4c(C)noc4C)ccc3C)C2)C(C)(C)C)C1 [Compound 51, (3R,5S)-1-((S)-2-(2-(3-((3-bromo-4-(1H-imidazol-1-yl)phenyl) (5-(3,5-dimethylisoxazol-4-yl)-2-methylphenyl)amino)methyl)azetidine-1-yl)ethoxy)acetamido)-3,3-dimethylbutanol)-5-((S)-(4-methylthiazol-5-yl)phenyl)ethyl)carbamoyl)pyrrolidine-3-yl acetate] | –
< 100 nM | Cc1cn(-c2ccc(N(CCCCCOCC(=O)N[C@H](C(=O)N3C[C@H](O)C[C@H]3C(=O)N[C@@H](C)c3ccc(-c4scnc4C)cc3)C(C)(C)C)c3cc(-c4c(C)noc4C)ccc3C)cc2Br)cn1 [Compound 53] | –
> 2000 nM | CC(=O)O[C@@H]1C[C@@H](C(=O)N[C@@H](C)c2ccc(-c3scnc3C)cc2)N(C(=O)[C@@H](NC(=O)COCCOCCN(c2ccc(-n3ccnc3)c(Br)c2)c2cc(-c3c(C)noc3C)ccc2C)C(C)(C)C)C1 [Compound 54] | –
> 2000 nM | Cc1ccc(-c2c(C)noc2C)cc1N(CCOCCOCC(=O)N[C@H](C(=O)N1C[C@H](O)C[C@H]1C(=O)N[C@@H](C)c1ccc(-c2scnc2C)cc1)C(C)(C)C)c1ccc(-n2ccnc2)c(Br)c1 [Compound 55] | –
501 to 2000 nM | CC(=O)O[C@@H]1C[C@@H](C(=O)N[C@@H](C)c2ccc(-c3scnc3C)cc2)N(C(=O)[C@@H](NC(=O)COCCCCCN(c2ccc(-n3ccnc3)cc2)c2cc(-c3c(C)noc3C)ccc2C)C(C)(C)C)C1 [Compound 84, (3R,5S)-1-((S)-2-(2-((S-((4-(1H-imidazol-1-yl)phenyl)(5-(3,5-dimethylisoxazol-4-yl)-2-methylphenyl)amino)pentyl)oxy)acetylamino)-3,3-dimethylbutyryl)-5-(((S)-1-(4-(4-methylthiazol-5-yl)phenyl)ethyl)aminoformyl)pyrrolidinyl-3-yl acetate] | –
